Measured values as given in ChEMBL document CHEMBL1146979, “Structure-activity relationship of thiopyrimidines as mGluR5 antagonists” (Bioorg Med Chem Lett, 2006).
Values belong to the molecule of their own block, whether it stands above or below them.

How the values were obtained:
[1] = molecular target: Metabotropic glutamate receptor 5 (Homo sapiens, UniProt P41594); assay: Inhibition of glutamate-induced calcium influx in human mGluR5d by FLIPR; type: functional
[2] = molecular target: Metabotropic glutamate receptor 4 (Homo sapiens) (UniProt Q14833); assay: Activity against mGluR4
[3] = molecular target: Metabotropic glutamate receptor 8 (Homo sapiens) (UniProt O00222); assay: Activity against mGluR8
[4] = Clearance in human liver microsomes; type: ADME, Microsome
[5] = molecular target: Metabotropic glutamate receptor 1 (Homo sapiens) (UniProt Q13255); assay: Activity against mGluR1
[6] = molecular target: Metabotropic glutamate receptor 3 (Homo sapiens) (UniProt Q14832); assay: Activity against mGluR3
[7] = molecular target: Metabotropic glutamate receptor 6 (Homo sapiens) (UniProt O15303); assay: Activity against mGluR6
[8] = Clearance in rat liver microsomes; type: ADME, Microsome
[9] = molecular target: Metabotropic glutamate receptor 7 (Homo sapiens) (UniProt Q14831); assay: Activity against mGluR7
[10] = molecular target: Metabotropic glutamate receptor 2 (Homo sapiens) (UniProt Q14416); assay: Activity against mGluR2

Sequence of Metabotropic glutamate receptor 5 (P41594 whole entry): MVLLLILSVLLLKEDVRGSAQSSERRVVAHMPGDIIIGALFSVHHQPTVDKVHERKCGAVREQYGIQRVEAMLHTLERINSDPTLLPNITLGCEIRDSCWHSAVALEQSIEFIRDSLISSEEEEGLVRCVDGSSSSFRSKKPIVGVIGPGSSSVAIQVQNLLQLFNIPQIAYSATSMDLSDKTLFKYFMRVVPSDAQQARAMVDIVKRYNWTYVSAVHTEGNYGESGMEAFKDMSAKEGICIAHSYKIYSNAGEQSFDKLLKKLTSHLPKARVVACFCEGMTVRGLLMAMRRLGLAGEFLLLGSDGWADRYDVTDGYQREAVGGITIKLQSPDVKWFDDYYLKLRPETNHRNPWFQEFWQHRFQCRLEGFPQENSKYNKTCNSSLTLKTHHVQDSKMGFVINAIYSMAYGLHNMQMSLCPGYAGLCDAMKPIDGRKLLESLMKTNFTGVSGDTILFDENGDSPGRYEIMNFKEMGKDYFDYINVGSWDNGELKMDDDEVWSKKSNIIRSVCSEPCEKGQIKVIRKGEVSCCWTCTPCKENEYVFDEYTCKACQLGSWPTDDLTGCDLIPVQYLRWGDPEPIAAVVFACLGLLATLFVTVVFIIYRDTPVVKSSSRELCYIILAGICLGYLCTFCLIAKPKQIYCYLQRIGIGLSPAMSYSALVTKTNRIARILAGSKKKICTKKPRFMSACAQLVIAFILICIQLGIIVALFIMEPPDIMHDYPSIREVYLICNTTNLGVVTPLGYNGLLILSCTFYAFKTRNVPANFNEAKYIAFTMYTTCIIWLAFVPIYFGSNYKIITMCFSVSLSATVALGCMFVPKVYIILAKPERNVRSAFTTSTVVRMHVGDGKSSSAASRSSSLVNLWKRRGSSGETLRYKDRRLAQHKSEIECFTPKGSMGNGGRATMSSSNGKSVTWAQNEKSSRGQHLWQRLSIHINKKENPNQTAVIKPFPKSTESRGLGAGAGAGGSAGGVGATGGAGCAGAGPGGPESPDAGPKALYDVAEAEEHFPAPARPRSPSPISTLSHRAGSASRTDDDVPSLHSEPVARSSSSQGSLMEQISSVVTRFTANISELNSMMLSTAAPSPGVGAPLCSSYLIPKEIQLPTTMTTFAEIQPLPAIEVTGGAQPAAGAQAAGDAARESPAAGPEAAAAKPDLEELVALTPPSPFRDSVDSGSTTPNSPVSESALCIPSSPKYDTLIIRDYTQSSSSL
Sequence of Metabotropic glutamate receptor 4 (Homo sapiens) (Q14833 whole entry): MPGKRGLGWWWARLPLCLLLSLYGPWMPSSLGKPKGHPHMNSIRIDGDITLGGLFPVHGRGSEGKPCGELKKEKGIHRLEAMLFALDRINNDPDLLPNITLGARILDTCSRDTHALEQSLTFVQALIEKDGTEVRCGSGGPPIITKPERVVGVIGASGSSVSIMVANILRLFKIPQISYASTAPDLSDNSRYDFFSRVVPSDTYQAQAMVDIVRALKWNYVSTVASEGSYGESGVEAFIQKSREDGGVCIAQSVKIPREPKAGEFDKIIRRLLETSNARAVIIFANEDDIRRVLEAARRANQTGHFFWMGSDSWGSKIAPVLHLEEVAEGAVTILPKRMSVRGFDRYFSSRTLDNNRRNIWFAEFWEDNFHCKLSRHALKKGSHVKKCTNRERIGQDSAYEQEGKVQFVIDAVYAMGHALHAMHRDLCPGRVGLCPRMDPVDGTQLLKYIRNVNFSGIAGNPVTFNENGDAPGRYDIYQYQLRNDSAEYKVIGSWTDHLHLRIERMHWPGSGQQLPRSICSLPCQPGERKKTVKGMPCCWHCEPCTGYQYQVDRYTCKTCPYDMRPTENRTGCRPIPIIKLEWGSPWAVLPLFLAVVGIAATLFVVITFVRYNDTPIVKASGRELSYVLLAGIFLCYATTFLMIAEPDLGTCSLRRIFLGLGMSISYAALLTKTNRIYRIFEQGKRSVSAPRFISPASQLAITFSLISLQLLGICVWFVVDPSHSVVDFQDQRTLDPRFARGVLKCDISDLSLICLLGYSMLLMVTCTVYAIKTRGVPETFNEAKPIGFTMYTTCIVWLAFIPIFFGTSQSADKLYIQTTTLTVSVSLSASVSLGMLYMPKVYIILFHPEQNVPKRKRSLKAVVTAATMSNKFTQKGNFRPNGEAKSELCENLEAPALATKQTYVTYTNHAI
Sequence of Metabotropic glutamate receptor 6 (Homo sapiens) (O15303 whole entry): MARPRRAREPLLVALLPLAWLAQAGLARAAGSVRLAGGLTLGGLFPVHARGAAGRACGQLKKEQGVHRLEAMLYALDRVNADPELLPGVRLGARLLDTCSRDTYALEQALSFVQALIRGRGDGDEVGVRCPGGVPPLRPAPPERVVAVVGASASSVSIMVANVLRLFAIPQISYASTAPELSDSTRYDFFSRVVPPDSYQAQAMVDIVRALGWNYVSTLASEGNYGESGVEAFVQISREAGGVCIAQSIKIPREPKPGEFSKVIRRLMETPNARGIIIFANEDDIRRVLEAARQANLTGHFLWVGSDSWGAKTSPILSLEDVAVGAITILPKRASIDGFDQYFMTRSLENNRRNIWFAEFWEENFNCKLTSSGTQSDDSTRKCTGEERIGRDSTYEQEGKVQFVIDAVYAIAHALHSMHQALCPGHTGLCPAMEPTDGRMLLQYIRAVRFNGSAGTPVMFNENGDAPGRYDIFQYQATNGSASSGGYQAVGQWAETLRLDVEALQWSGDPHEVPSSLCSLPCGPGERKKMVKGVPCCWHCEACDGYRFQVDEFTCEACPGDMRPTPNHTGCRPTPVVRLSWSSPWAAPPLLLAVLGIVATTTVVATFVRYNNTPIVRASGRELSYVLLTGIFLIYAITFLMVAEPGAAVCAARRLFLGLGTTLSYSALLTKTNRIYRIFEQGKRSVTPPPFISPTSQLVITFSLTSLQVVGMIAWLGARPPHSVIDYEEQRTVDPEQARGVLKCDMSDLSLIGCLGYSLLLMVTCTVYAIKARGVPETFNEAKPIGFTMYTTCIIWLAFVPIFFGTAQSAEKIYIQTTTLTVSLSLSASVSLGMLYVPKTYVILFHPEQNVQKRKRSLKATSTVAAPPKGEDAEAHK
Sequence of Metabotropic glutamate receptor 7 (Homo sapiens) (Q14831 whole entry): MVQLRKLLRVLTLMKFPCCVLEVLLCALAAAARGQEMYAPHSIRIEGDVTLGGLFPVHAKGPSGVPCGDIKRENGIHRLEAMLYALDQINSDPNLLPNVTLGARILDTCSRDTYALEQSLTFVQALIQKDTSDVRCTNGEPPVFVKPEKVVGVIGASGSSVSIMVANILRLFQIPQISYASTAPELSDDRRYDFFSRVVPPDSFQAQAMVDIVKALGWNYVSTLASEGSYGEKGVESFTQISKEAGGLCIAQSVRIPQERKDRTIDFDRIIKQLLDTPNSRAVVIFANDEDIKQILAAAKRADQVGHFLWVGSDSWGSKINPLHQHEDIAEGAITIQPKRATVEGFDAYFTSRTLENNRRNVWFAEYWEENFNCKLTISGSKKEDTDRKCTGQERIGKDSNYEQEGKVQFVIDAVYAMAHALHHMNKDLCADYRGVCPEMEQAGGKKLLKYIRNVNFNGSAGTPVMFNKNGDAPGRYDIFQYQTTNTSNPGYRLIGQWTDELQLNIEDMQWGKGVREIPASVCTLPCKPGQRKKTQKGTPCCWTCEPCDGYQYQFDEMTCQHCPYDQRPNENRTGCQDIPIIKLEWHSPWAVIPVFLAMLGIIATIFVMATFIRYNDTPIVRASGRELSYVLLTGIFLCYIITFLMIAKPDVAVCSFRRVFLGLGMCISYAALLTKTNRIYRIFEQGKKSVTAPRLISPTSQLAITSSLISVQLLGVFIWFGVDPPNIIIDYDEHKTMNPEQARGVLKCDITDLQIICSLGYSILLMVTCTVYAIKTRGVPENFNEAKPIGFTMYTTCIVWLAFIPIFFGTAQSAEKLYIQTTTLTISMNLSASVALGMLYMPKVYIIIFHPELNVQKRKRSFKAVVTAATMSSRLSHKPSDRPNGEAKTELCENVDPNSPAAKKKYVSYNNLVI
Sequence of Metabotropic glutamate receptor 8 (Homo sapiens) (O00222 whole entry): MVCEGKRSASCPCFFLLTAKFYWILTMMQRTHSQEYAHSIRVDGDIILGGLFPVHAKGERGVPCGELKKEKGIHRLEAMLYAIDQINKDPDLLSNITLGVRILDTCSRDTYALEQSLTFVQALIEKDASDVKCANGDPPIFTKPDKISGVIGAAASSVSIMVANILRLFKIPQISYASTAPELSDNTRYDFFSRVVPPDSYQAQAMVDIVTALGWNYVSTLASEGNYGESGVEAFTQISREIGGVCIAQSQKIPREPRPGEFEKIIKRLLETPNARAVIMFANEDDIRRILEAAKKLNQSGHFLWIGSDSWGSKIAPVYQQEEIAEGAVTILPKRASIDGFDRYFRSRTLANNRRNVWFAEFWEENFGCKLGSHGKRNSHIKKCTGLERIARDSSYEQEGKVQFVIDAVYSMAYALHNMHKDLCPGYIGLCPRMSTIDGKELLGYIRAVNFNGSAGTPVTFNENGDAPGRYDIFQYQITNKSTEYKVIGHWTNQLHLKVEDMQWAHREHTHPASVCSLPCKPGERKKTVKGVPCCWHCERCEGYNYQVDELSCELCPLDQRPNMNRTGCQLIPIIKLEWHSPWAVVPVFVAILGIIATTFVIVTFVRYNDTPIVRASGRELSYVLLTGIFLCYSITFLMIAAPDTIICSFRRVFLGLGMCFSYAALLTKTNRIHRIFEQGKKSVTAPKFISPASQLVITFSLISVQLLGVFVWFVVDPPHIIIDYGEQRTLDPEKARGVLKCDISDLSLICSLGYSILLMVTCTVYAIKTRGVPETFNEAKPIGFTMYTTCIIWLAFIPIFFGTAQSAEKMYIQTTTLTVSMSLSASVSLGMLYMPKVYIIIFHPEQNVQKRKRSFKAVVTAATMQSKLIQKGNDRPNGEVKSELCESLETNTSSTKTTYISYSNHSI

SMILES: Clc1ccc(Nc2ccnc(-c3ccccn3)n2)cc1
IC50 ([1]; read-out: IC50): > 10000 nM

SMILES: Fc1ccc(-c2nccc(Sc3ccc(Cl)c(Cl)c3)n2)nc1
Activity [2]: > 25 µM
Activity [3]: > 25 µM
microsomal CLint [4]: 140 µL/min/mg
IC50 ([1]; read-out: IC50): 80 nM
Activity [5]: > 25 µM
Activity [6]: > 25 µM
Activity [7]: > 25 µM
microsomal CLint [8]: 90 µL/min/mg
Activity [9]: > 25 µM
Activity [10]: > 25 µM

SMILES: Fc1ccc(Sc2ccnc(-c3ccccn3)n2)cc1F
IC50 ([1]; read-out: IC50): 1520 nM

SMILES: Clc1ccc(Sc2ccnc(-c3ccccn3)n2)cc1Cl
microsomal CLint [4]: 90 µL/min/mg
IC50 ([1]; read-out: IC50): 90 nM
microsomal CLint [8]: 120 µL/min/mg

SMILES: Cc1cccc(-c2nccc(Sc3ccc(Cl)c(Cl)c3)n2)n1
Activity [2]: > 25 µM
Activity [3]: > 25 µM
IC50 ([1]; read-out: IC50): 390 nM
Activity [5]: > 25 µM
Activity [6]: > 25 µM
Activity [7]: > 25 µM
Activity [9]: > 25 µM
Activity [10]: > 25 µM

SMILES: FC(F)(F)c1cccc(Sc2ccnc(-c3ccccn3)n2)c1
IC50 ([1]; read-out: IC50): 550 nM

SMILES: Clc1ccc(Sc2ccnc(-c3ccccn3)c2)cc1Cl
IC50 ([1]; read-out: IC50): 2370 nM

SMILES: FC(F)(F)c1ccc(Sc2ccnc(-c3ccccn3)n2)cc1
IC50 ([1]; read-out: IC50): 210 nM

SMILES: Clc1ccc(Sc2ccnc(-c3ccncc3)n2)cc1
IC50 ([1]; read-out: IC50): > 10000 nM

SMILES: Cc1cccc(Sc2ccnc(-c3ccccn3)n2)c1
IC50 ([1]; read-out: IC50): 2300 nM

SMILES: Clc1ccc(Sc2nccc(-c3ccccn3)n2)cc1Cl
IC50 [1]: Not Active

SMILES: Clc1ccc(Cc2ccnc(-c3ccccn3)n2)cc1
IC50 ([1]; read-out: IC50): > 10000 nM

SMILES: Clc1ccc(Sc2ccnc(-c3ccccn3)n2)cc1
IC50 ([1]; read-out: IC50): 320 nM

Other lines, results leading:

IC50 ([1]; read-out: IC50): > 10000 nM
SMILES: Clc1ccc(Sc2ccnc(-c3cccnc3)n2)cc1

IC50 [1]: Not Active
SMILES: Clc1ccc(-c2ccnc(-c3ccccn3)n2)cc1Cl

IC50 [1]: Not Active
SMILES: Clc1ccc(Sc2cccc(-c3ccccn3)n2)cc1Cl

IC50 ([1]; read-out: IC50): > 3000 nM
SMILES: OC(c1ccc(Cl)cc1)c1ccnc(-c2ccccn2)n1 (stereo not given)

IC50 ([1]; read-out: IC50): 620 nM
SMILES: Clc1cccc(Sc2ccnc(-c3ccccn3)n2)c1

IC50 ([1]; read-out: IC50): 2860 nM
SMILES: Brc1cccc(Sc2ccnc(-c3ccccn3)n2)c1

IC50 ([1]; read-out: IC50): > 10000 nM
SMILES: Clc1ccc(Oc2ccnc(-c3ccccn3)n2)cc1

IC50 ([1]; read-out: IC50): 1250 nM
SMILES: Cc1cc(Sc2ccc(Cl)cc2)nc(-c2ccccn2)n1

IC50 ([1]; read-out: IC50): > 10000 nM
SMILES: CC(=O)N(c1ccc(Cl)cc1)c1ccnc(-c2ccccn2)n1
